Test results as given in patent publication US8034602B2 (priority 2006, dated 2011).

Test system: mutant strain CJR0500
Assay: Flask fermentation with tryptophan added to fermentation medium
Assay type: cell-based, Corynebacterium glutamicum
Conditions: 50 mg/L tryptophan in fermentation medium, 30° C., 64 hrs, shaking

N[C@@H](Cc1c[nH]c2ccccc12)C(=O)O [Tryptophan, L-tryptophan]
Effect of tryptophan addition on growth: stimulate the growth
